Assay results reported in patent publication US20100269215A1 (SNU R&DB Foundation, priority 2006, published 2010).

Key:
TflA protein = assay: Degradation of toxoflavin and its derivatives by TflA protein (TLC enzyme analysis); type: biochemical, Paenibacillus polymyxa JH2; settings: within given time; see FIG. 8
Method: 5 μM TflA protein, 10 μM MnCl2 and 5 mM DTT (dithiothreitol) were added to analysis buffer (50 mM sodium phosphate (pH 6.5)) to give 200 μl mixture and the reaction was carried out at 25 °C. […] After 10 min of the reaction, 200 μl of chloroform was added to stop the reaction. The chloroform layer was dried completely, then 10 μl of 100% methanol was added. An aliquot taken from the reaction mixture comprising methanol was applied on a TLC plate using pipette. The resulting plate was placed in TLC chamber containing mixed solvents of chloroform and methanol (95:5, V:V) at room temperature. TLC was visualized under UV illuminator (254 nm and 365 nm).

[1] = tested on: non-transgenic organisms (Arabidopsis Col-0); assay: Seeds on MS plate containing toxoflavin, non-transgenic organisms; type: in vivo, Arabidopsis thaliana; settings: media comprising 20 uM toxoflavin; ten days
[2] = tested on: Arabidopsis Col-0, non-transgenic organisms; assay: Germination and growth on toxoflavin medium, non-transgenic Arabidopsis; type: in vivo, Arabidopsis thaliana; settings: 20 uM toxoflavin
[3] = tested on: wild rice leaves (Dongjinbyeo wild-type plant); assay: Toxoflavin treatment of leaf pieces, wild-type rice; type: in vivo; settings: 0, 25, 50 or 100 μM toxoflavin, 48 hrs, under light; seen 40 hrs after treatment
Method: (§1) Thus, the experiment of the present invention was carried out under light.

Arabidopsis Col-0 = assay: Photo-bleaching test, non-transgenic Arabidopsis; type: in vivo, Arabidopsis thaliana
Text: (§2) Such results correspond to the result of PCR described above.

[4] = tested on: Arabidopsis Col-0, non-transgenic organisms; assay: Photo-bleaching test, non-transgenic Arabidopsis; type: in vivo, Arabidopsis thaliana
Text: as §2

[5] = tested on: rice callus transformed with pCamLA vector; assay: Survival of rice callus under selection with toxoflavin, pCamLA; type: cell-based
[6] = tested on: rice callus transformed with pTflA vector; assay: Selection with toxoflavin of rice callus transformed with pTflA; type: cell-based
[7] = tested on: rice callus transformed with pTflA vector; assay: Survival of rice callus under selection with toxoflavin, pTflA; type: cell-based
[8] = tested on: leaves of transgenic T3 rice plant with tflA gene; assay: Toxoflavin treatment of leaf pieces, transgenic T3 rice plant expressing tflA; type: in vivo; settings: 0, 25, 50 or 100 μM toxoflavin, 48 hrs, under light
Method: as §1

[9] = tested on: transgenic plants to which the toxoflavin-resistant gene has been incorporated; assay: Seeds on MS plate containing toxoflavin, transgenic plants; type: in vivo, Arabidopsis thaliana; settings: media comprising 20 uM toxoflavin; ten days
Method: Detailed method for the transformation is described below. • 1. […] 0.03% silwet was added to the suspension. • 4. […] The plants were wrapped with a plastic bag. Bags were removed two days later.
Roots were also growing well.

[10] = tested on: leaves of the transgenic plants to which tflA gene has been introduced; assay: Toxoflavin treatment of cut rice leaves, transgenic T3 plants; settings: toxoflavin 0, 25, 50 or 100 μM, under light, 48 hrs
Method: as §1

leaves of wild rice = assay: Toxoflavin treatment of cut rice leaves, wild type; settings: toxoflavin 0, 25, 50 or 100 μM, under light; 40 hrs after the treatment
Method: as §1

transgenic organisms = assay: Photo-bleaching test, transgenic Arabidopsis; type: in vivo, Arabidopsis thaliana; settings: transgenic organisms selected for the test; FIG. 24
Text: as §2

[11] = tested on: Arabidopsis Col-0, transgenic organisms with tflA; assay: Photo-bleaching test, transgenic Arabidopsis; type: in vivo, Arabidopsis thaliana; settings: FIG. 24
Text: as §2

[12] = tested on: rice callus transformed with pCamLA vector; assay: Selection with toxoflavin of rice callus transformed with pCamLA; type: cell-based
[13] = tested on: Cn1ncnc2c(=O)n(C)c(=O)nc1-2; assay: purified protein, by the assay type; settings: other: toxoflavin 80-200 μM, 50 mM sodium phosphate pH 6.5, MnCl2 and DTT, Lineweaver-Burk plot
Method: Each of experimental points is a mean value that is calculated from data obtained from at least of three measurements.

[14] = various concentrations, even at low concentration
[15] = toxoflavin 5 ug/ml, before redifferentiation
[16] = toxoflavin 7.5 ug/ml, four weeks after placement on redifferentiation medium
[17] = toxoflavin 5 ug/ml, selection before redifferentiation, FIG. 18

Cn1nc(-c2ccccc2)nc2c(=O)n(C)c(=O)nc1-2 [3-phenyltoxoflavin]
degradation by TflA protein (TflA protein): not degraded at all

Cn1c(=O)nc2[nH]nc(-c3ccccc3)nc-2c1=O [3-phenylreumycin]
degradation by TflA protein (TflA protein): not degraded at all

O=c1[nH]c(=O)c2cc3ccccc3nc2[nH]1 [5-deazaflavin]
degradation by TflA protein (TflA protein): not degraded at all

Cn1ncnc2c(=O)n(C)c(=O)nc1-2 [toxoflavin]
germination and root growth [1]: germination did not occur for most of the non-transgenic organisms | germination [2]: germination did not occur for most of the non-transgenic organisms | root growth where germination occurred [2]: root growth was not normal | discoloration of leaves [3]: discoloration due to the toxin started to show up | photo-bleaching (Arabidopsis Col-0; non-transgenic organisms, FIG. 24): the bleaching occurred | bleaching effect on the plant (Arabidopsis Col-0; [14]): exerts a bleaching effect | photo-bleaching ([4]; bleaching test, FIG. 24): the bleaching occurred | bleaching effect [4, 14]: even at low concentration toxoflavin exerts a bleaching effect | survival of callus [5, 15]: most of the callus died out | survival of callus [5, 16]: most of the callus died out | survival of callus [6, 17]: only a part of the callus died out | survival of callus ([6]; toxoflavin 7.5 ug/ml, four weeks after placement on medium for redifferentiation, FIG. 20): the callus was redifferentiated normally | survival of callus [7, 15]: only a part of the callus died out | survival of callus [7, 16]: the callus was redifferentiated normally | discoloration of leaves [8]: no such discoloration was observed | growth [9]: show normal growth | discoloration of leaves [10]: no such discoloration was observed | discoloration of leaves (leaves of wild rice): discoloration due to the toxin started to show up | degradation by TflA protein (TflA protein): completely degraded | photo-bleaching (transgenic organisms): photo-bleaching was not observed | photo-bleaching [11]: photo-bleaching was not observed | survival of callus [12, 17]: most of the callus died out | survival of callus ([12]; toxoflavin 7.5 ug/ml, four weeks after placement on medium for redifferentiation, FIG. 19): most of the callus died out

Cn1c(=O)[nH]c2nncnc2c1=O [reumycin]
degradation by TflA protein (TflA protein): partially degraded

4,8-dihydrotoxoflavin
degradation by TflA protein (TflA protein): completely degraded

Paenibacillus polymyxa JH2 TflA protein, wild type, N-terminal His-tagged (His-TflA), SEQ ID NO: 2 (Paenibacillus polymyxa)
Km [13]: 69.72 µM

Cc1nc2c(=O)n(C)c(=O)nc-2n(C)n1 [3-methyltoxoflavin]
degradation by TflA protein (TflA protein): completely degraded

Cn1c(=O)c2ncnnc2n(C)c1=O [fervenulin]
degradation by TflA protein (TflA protein): partially degraded

CC1=NN(C)c2[nH]c(=O)n(C)c(=O)c2N1 [3-methyl 4,8-dihydrotoxoflavin]
degradation by TflA protein (TflA protein): partially degraded

Cc1n[nH]c2nc(=O)n(C)c(=O)c-2n1 [3-methylreumycin]
degradation by TflA protein (TflA protein): completely degraded
